Laboratory results: the supplement of paper PMC10307832

What was measured:
Assay in all cases: relative viability (nuclei count vs DMSO), 5 days (fraction); higher = more cells survive
[1] = compound: COc1cc(Nc2c(C#N)cnc3cc(OCCCN4CCN(C)CC4)c(OC)cc23)c(Cl)cc1Cl [Bosutinib] + CC(=O)c1c(C)c2cnc(Nc3ccc(N4CCNCC4)cn3)nc2n(C2CCCC2)c1=O [Palbociclib] (partner 0.5 µM)
Outline: (§1)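 A single step with final 0.05% Triton X-100, 1% formaldehyde and 1 ug/ml Hoechst fixed the cells and stained nuclei 5 days after treatment. Lung cancer cell lines in 1536-well plates had been treated by pin tool the day after seeding with one drug alone or a fixed anchor-drug dose plus five library-drug doses (not always all listed) in √10 steps, and nuclei were counted on 4× images. Relative viability is the ratio of nuclei in treated wells to nuclei in vehicle wells, taken as the median of duplicate plates.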

[2] = compound: COc1cc(Nc2c(C#N)cnc3cc(OCCCN4CCN(C)CC4)c(OC)cc23)c(Cl)cc1Cl [Bosutinib] + CC(C)C[C@H](NC(=O)[C@H](Cc1ccccc1)NC(=O)c1cnccn1)B(O)O [Bortezomib] (partner 0.002 µM)
Outline: as §1

[3] = compound: COc1cc(Nc2c(C#N)cnc3cc(OCCCN4CCN(C)CC4)c(OC)cc23)c(Cl)cc1Cl [Bosutinib] + CS(=O)(=O)CCNCc1ccc(-c2ccc3ncnc(Nc4ccc(OCc5cccc(F)c5)c(Cl)c4)c3c2)o1 [Lapatinib] (partner 2 µM)
Outline: as §1

[4] = compound: COc1cc(Nc2c(C#N)cnc3cc(OCCCN4CCN(C)CC4)c(OC)cc23)c(Cl)cc1Cl [Bosutinib] + CS(=O)(=O)N1CCN(Cc2cc3nc(-c4cccc5[nH]ncc45)nc(N4CCOCC4)c3s2)CC1 [Pictilisib] (partner 1 µM)
Outline: as §1

[5] = compound: COc1cc(Nc2c(C#N)cnc3cc(OCCCN4CCN(C)CC4)c(OC)cc23)c(Cl)cc1Cl [Bosutinib] + Nc1nc2[nH]cc(CCc3ccc(C(=O)N[C@@H](CCC(=O)O)C(=O)O)cc3)c2c(=O)[nH]1 [Pemetrexed] (partner 0.2 µM)
Outline: as §1

Row | Cell Line | relative viability ([1]; first compound 0.01 µM) | relative viability ([1]; first compound 0.03162 µM) | relative viability ([1]; first compound 0.1 µM) | relative viability ([1]; first compound 1 µM) | relative viability ([2]; first compound 0.01 µM) | relative viability ([2]; first compound 0.03162 µM) | relative viability ([2]; first compound 0.1 µM) | relative viability ([2]; first compound 1 µM) | relative viability ([3]; first compound 0.01 µM) | relative viability ([3]; first compound 0.03162 µM) | relative viability ([3]; first compound 0.1 µM) | relative viability ([3]; first compound 1 µM) | relative viability ([4]; first compound 0.01 µM) | relative viability ([4]; first compound 0.03162 µM) | relative viability ([4]; first compound 0.1 µM) | relative viability ([4]; first compound 1 µM) | relative viability ([5]; first compound 0.01 µM) | relative viability ([5]; first compound 0.03162 µM) | relative viability ([5]; first compound 0.1 µM) | relative viability ([5]; first compound 1 µM)
1 | NCI-H647 | 0.528 | 0.394 | 0.452 | 0.299 | 1.06 | 1.06 | 0.919 | 0.405 | 1.06 | 1.16 | 1.09 | 0.53 | 0.508 | 0.436 | 0.432 | 0.372 | 0.221 | 0.179 | 0.162 | 0.171
2 | NCI-H650 | 0.398 | 0.325 | 0.332 | 0.406 | 0.875 | 0.854 | 0.858 | 0.962 | 0.889 | 1.07 | 0.948 | 1.15 | 0.913 | 0.878 | 0.914 | 0.997 | 0.893 | 0.846 | 0.972 | 0.953
3 | NCI-H661 | 0.392 | 0.398 | 0.434 | 0.363 | 1.05 | 0.802 | 0.733 | 0.446 | 0.489 | 0.511 | 0.468 | 0.354 | 0.351 | 0.53 | 0.386 | 0.327 | 0.919 | 0.908 | 0.952 | 0.741
4 | NCI-H838 | 0.23 | 0.209 | 0.2 | 0.174 | 0.97 | 0.794 | 0.78 | 0.577 | 1.18 | 0.94 | 0.922 | 0.604 | 0.468 | 0.429 | 0.414 | 0.319 | 0.268 | 0.229 | 0.246 | 0.253
5 | NCI-H1355 | 0.415 | 0.396 | 0.386 | 0.372 | 1.27 | 1.24 | 1.3 | 1.21 | 1.01 | 1.04 | 1.09 | 0.957 | 0.465 | 0.545 | 0.572 | 0.412 | 1.05 | 0.975 | 1.06 | 1.05
6 | NCI-H1437 | 0.332 | 0.281 | 0.317 | 0.343 | 0.599 | 0.485 | 0.464 | 0.436 | 0.89 | 0.798 | 0.784 | 0.702 | 0.465 | 0.395 | 0.54 | 0.483 | 0.317 | 0.377 | 0.311 | 0.29
7 | NCI-H1650 | 0.343 | 0.315 | 0.304 | 0.188 | 0.215 | 0.204 | 0.214 | 0.279 | 0.835 | 0.731 | 0.745 | 0.636 | 0.587 | 0.516 | 0.524 | 0.49 | 0.304 | 0.366 | 0.404 | 0.301
